Tests used:
[1] = system: Melanoma (A 375, B16-F1) and Prostate Cancer Cells (DU145, PC-3, LNCaP, PPC-1); assay: Antiproliferative activity over melanoma and prostate cancer cell lines; assay type: cell-based, human and mouse
Cell cycle progression = assay type: cell-based; conditions: unpublished data
Water solubility = assay type: physicochemical
CCRF-CEM (Leukemia) = assay: NCI-60 human tumor cell line screen, CCRF-CEM; assay type: cell-based; conditions: read-out: IC50 NCI-60, CCRF-CEM, lowest of the NCI-60 range
DU 145 cells = assay: SRB cytotoxicity assay, DU 145 prostate cancer; assay type: cell-based, human; conditions: read-out: IC50 ± SEM (μM) DU 145, Table 2, 96 h
LNCaP cells = assay: SRB cytotoxicity assay, LNCaP prostate cancer; assay type: cell-based, human; conditions: read-out: IC50 ± SEM (μM) LNCaP, Table 2, 96 h
PPC-1 cells = assay: SRB cytotoxicity assay, PPC-1 prostate cancer; assay type: cell-based, human; conditions: read-out: IC50 ± SEM (μM) PPC-1, Table 2, 96 h
A375 cells = assay: SRB cytotoxicity assay, A375 melanoma; assay type: cell-based, human; conditions: read-out: IC50 ± SEM (μM) A375, Table 2, 48 h
B16-F1 cells = assay: SRB cytotoxicity assay, B16-F1 melanoma; assay type: cell-based, mouse; conditions: read-out: IC50 ± SEM (μM) B16-F1, Table 2, 48 h

| Compound | antiproliferative activity (in words) [1] | further results |
| --- | --- | --- |
| COc1cc(NC(=O)[C@@H]2CSC(c3ccccc3)N2)cc(OC)c1OC (mixture of isomers) [2a, (2RS, 4R)-2-Phenyl-N-(3,4,5-trimethoxyphenyl)thiazolidine-4-carboxamide] | the potency against both cancer cell lines was lost | – |
| COc1cc(NC(=O)[C@@H]2CSC(c3cc(OC)c(OC)c(OC)c3)N2)cc(OC)c1OC (mixture of isomers) [2b, (2RS, 4R)-N,2-bis(3,4,5-trimethoxyphenyl)thiazolidine-4-carboxamide] | the potency against both cancer cell lines was lost | – |
| COc1cc(NC(=O)C2CSC(c3ccccc3)=N2)cc(OC)c1OC (stereo in doubt) [4b, (4R)-2-Phenyl-N-(3,4,5-trimethoxyphenyl)-4,5-dihydrothiazole-4-carboxamide] | – | IC50 ([1]; read-out: IC50 over melanoma and prostate cancer cell lines): 3.4 to 38.3 µM |
| COc1ccccc1C(=O)c1csc(-c2ccccc2)n1 [8d, (2-Methoxyphenyl)(2-phenylthiazol-4-yl)-methanone] | weak activity against a certain cell lines | – |
| COc1cc(C(=O)c2csc(-c3ccccc3)n2)cc(OC)c1OC [8f, (2-Phenyl-thiazol-4-yl)-(3,4,5-trimethoxy-phenyl)-methanone] | – | cell cycle effect (in words) (Cell cycle progression): significant increase in G2/M phase arrest |
| COc1cc(OC)cc(C(=O)c2csc(-c3ccccc3)n2)c1 [8g, (3,5-Dimethoxyphenyl)(2-phenylthiazol-4-yl)-methanone] | – | fold lower average cytotoxicity than 8f ([1]; against six different cell lines, relative to 8f): 6 fold |
| O=C(c1ccccn1)c1csc(-c2ccccc2)n1 [8i, (2-Phenylthiazol-4-yl)-(pyridin-2-yl)-methanone] | total loss of the anti-cancer activity | – |
| COc1ccc(-c2nc(C(=O)c3cc(OC)c(OC)c(OC)c3)cs2)cc1OC [8o, [2-(3,4-Dimethoxyphenyl)-thiazol-4-yl]-(3,4,5-trimethoxyphenyl)-methanone] | comparable antiproliferative activity | – |
| COc1cc(C(=O)c2csc(-c3ccc([N+](=O)[O-])cc3)n2)cc(OC)c1OC [8p, [2-(4-Nitrophenyl)-thiazol-4-yl]-(3,4,5-trimethoxyphenyl)-methanone] | comparable antiproliferative activity | – |
| COc1cc(C(=O)c2csc(-c3ccc(C#N)cc3)n2)cc(OC)c1OC [8q, 4-[4-(3,4,5-Trimethoxybenzoyl)-thiazol-2-yl]-benzonitrile] | comparable antiproliferative activity | – |
| COc1cc(C(=O)c2csc(-c3ccc(C(=O)O)cc3)n2)cc(OC)c1OC [8r, 4-[4-(3,4,5-Trimethoxybenzoyl)-thiazol-2-yl]-benzoic acid] | total loss of the anti-cancer activity | – |
| COC(=O)c1ccc(-c2nc(C(=O)c3cc(OC)c(OC)c(OC)c3)cs2)cc1 [8s, Methyl-4-[4-(3,4,5-trimethoxybenzoyl)-thiazol-2-yl]-benzoate] | total loss of potency | – |
| COc1cc(C(=O)c2csc(-c3ccc(C(F)(F)F)cc3)n2)cc(OC)c1OC [8t, (2-(4-(Trifluoromethyl)-phenyl)-thiazol-4-yl)(3,4,5-trimethoxyphenyl)-methanone] | comparable antiproliferative activity | – |
| COc1cc(C(=O)c2csc(-c3ncccn3)n2)cc(OC)c1OC [8y, [2-(Pyrimidin-2-yl)-thiazol-4-yl]-(3,4,5-trimethoxyphenyl)-methanone] | kept partial activity against both cancer cells | – |
| COc1cc(NC(=O)c2csc(-c3ccccc3)n2)cc(OC)c1OC [compound 5, 2-Phenyl-N-(3,4,5-trimethoxyphenyl)thiazole-4-carboxamide] | did not show any cytotoxicity against either cancer cell line tested | – |
| COc1cc(C(=O)c2cscn2)cc(OC)c1OC [compound 10, Thiazol-4-yl-(3,4,5-trimethoxy-phenyl)-methanone] | total loss of activity | – |
| O=C(c1cc(O)c(O)c(O)c1)c1csc(-c2ccccc2)n1 [compound 11, (2-Phenyl-thiazol-4-yl)-(3,4,5-trihydroxy-phenyl)-methanone] | complete loss of antiproliferative activity | water solubility (in words) (Water solubility): water soluble |
| (2RS, 4R)-2-phenyl-thiazolidine-4-carboxylic acid hexadecylamide [ATCAA-1] | – | IC50 (CCRF-CEM (Leukemia)): 0.124 µM; IC50 (DU 145 cells): 1.7 ± 0.1 µM; IC50 (LNCaP cells): 1 ± 0.1 µM; IC50 (PPC-1 cells): 0.4 ± 0.1 µM; IC50 (A375 cells): 2.1 ± 0.2 µM; IC50 (B16-F1 cells): 2.2 ± 0.3 µM |

From article PMC2760094 (Journal of medicinal chemistry, 2009)
